In the supplement of paper PMC8617591:

Key:
[1] = system: Mycobacterium tuberculosis Erdman (autoluminescent); experiment: AUC25, normalised area under dose response up to IC25 (three-drug combination) (fraction (0-1)); higher = more potent at low dose
Description: (§1)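 DiaMOND equipotent three-drug combination dose responses (10 doses, 1.5- or 2-fold spacing, centred on IC90) against autoluminescent M. tuberculosis Erdman in 8 in vitro models. Read-out is OD600, or luminescence for the intracellular and dormancy models, normalised to untreated wells. Hill-fit Einf, AUC25 and GRinf are potency metrics; FIC50 and FIC90 are total Loewe fractional inhibitory concentrations as log2 (negative = synergy).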

[2] = system: Mycobacterium tuberculosis Erdman (autoluminescent); experiment: total FIC90 (Loewe) at 90% inhibition, three-drug combination (log2); higher = more antagonistic
Description: as §1

[3] = system: Mycobacterium tuberculosis Erdman (autoluminescent); experiment: GRinf, maximum normalised growth rate inhibition (three-drug combination) (unitless (-1 to 1)); higher = less effect (negative = killing)
Description: as §1

[4] = system: Mycobacterium tuberculosis Erdman (autoluminescent); experiment: total FIC50 (Loewe) at 50% inhibition, three-drug combination (log2); higher = more antagonistic
Description: as §1

[5] = system: Mycobacterium tuberculosis Erdman (autoluminescent); experiment: Einf, fitted maximum growth inhibition of three-drug combination (fraction); higher = stronger maximal inhibition
Description: as §1

CC(C)/N=c1\cc2n(-c3ccc(Cl)cc3)c3ccccc3nc-2cc1Nc1ccc(Cl)cc1 [clofazimine] + O=[N+]([O-])c1cn2c(n1)OC[C@@H](OCc1ccc(OC(F)(F)F)cc1)C2 [pretomanid] + CO[C@H]1/C=C/O[C@@]2(C)Oc3c(C)c(O)c4c(O)c(c(/C=N/N5CCN(C6CCCC6)CC5)c(O)c4c3C2=O)NC(=O)/C(C)=C\C=C\[C@H](C)[C@H](O)[C@@H](C)[C@@H](O)[C@@H](C)[C@H](OC(C)=O)[C@@H]1C [rifapentine]
Conditions	AUC25, [1]	Einf, [5]	GRinf, [3]	total FIC50, [4]	total FIC90, [2]
in vitro model: acidic pH 5.7, time point: constant (~7 days, model-specific)	0.103	0.899	-0.186	0.105	–
in vitro model: acidic pH 5.7, time point: terminal (~4-5 doublings, model-specific)	0.0882	0.993	-0.236	0.264	0.423
in vitro model: intracellular J774, time point: constant = terminal	–	0.989	-0.655	–	-0.198

Conditions	AUC25, [1]	Einf, [5]	GRinf, [3]	total FIC50, [4]	total FIC90, [2]
in vitro model: butyrate, time point: constant (~7 days, model-specific)	0.108	0.944	-0.17	0.542	0.896
in vitro model: butyrate, time point: terminal (~4-5 doublings, model-specific)	0.0902	0.978	-0.146	0.502	0.795
in vitro model: cholesterol 0.05 mM, time point: constant (~7 days, model-specific)	0.125	0.719	-0.154	1.34	–
in vitro model: cholesterol 0.05 mM, time point: terminal (~4-5 doublings, model-specific)	0.1	0.913	-0.114	1.34	1.38
in vitro model: cholesterol-high 0.2 mM, time point: constant (~7 days, model-specific)	0.101	0.93	-0.434	1.29	2.04
in vitro model: cholesterol-high 0.2 mM, time point: terminal (~4-5 doublings, model-specific)	0.104	1	-0.886	1.49	1.76
in vitro model: dormancy (butyrate + nitrate, low O2), time point: constant (~7 days, model-specific)	0.0611	0.948	-0.0911	0.0191	-1.71
in vitro model: dormancy (butyrate + nitrate, low O2), time point: terminal (~4-5 doublings, model-specific)	0.0501	0.997	-0.374	-0.0775	-0.279
in vitro model: standard 7H9 glycerol, time point: constant = terminal	0.12	0.954	-0.0887	-0.289	1.7
in vitro model: valerate, time point: constant (~7 days, model-specific)	0.155	0.893	-0.158	1.22	–
in vitro model: valerate, time point: terminal (~4-5 doublings, model-specific)	0.106	0.953	0.0119	0.552	1.7

CC(C)/N=c1\cc2n(-c3ccc(Cl)cc3)c3ccccc3nc-2cc1Nc1ccc(Cl)cc1 [clofazimine] + O=[N+]([O-])c1cn2c(n1)OC[C@@H](OCc1ccc(OC(F)(F)F)cc1)C2 [pretomanid] + CO[C@H]1/C=C/O[C@@]2(C)Oc3c(C)c(O)c4c(O)c(c(/C=N/N5CCN(C)CC5)c(O)c4c3C2=O)NC(=O)/C(C)=C\C=C\[C@H](C)[C@H](O)[C@@H](C)[C@@H](O)[C@@H](C)[C@H](OC(C)=O)[C@@H]1C [rifampicin]
Conditions	AUC25, [1]	Einf, [5]	GRinf, [3]	total FIC50, [4]	total FIC90, [2]
in vitro model: acidic pH 5.7, time point: constant (~7 days, model-specific)	0.113	0.916	-0.179	0.218	–
in vitro model: acidic pH 5.7, time point: terminal (~4-5 doublings, model-specific)	0.073	0.989	-0.161	0.575	0.276
in vitro model: intracellular J774, time point: constant = terminal	–	0.992	-0.685	–	-0.529

Conditions	AUC25, [1]	Einf, [5]	GRinf, [3]	total FIC50, [4]	total FIC90, [2]
in vitro model: butyrate, time point: constant (~7 days, model-specific)	0.104	0.936	-0.134	0.432	0.0534
in vitro model: butyrate, time point: terminal (~4-5 doublings, model-specific)	0.0947	0.977	-0.128	0.197	0.399
in vitro model: cholesterol 0.05 mM, time point: constant (~7 days, model-specific)	0.124	0.696	-0.174	1.03	–
in vitro model: cholesterol 0.05 mM, time point: terminal (~4-5 doublings, model-specific)	0.0924	0.844	0.0526	1.18	0.826
in vitro model: cholesterol-high 0.2 mM, time point: constant (~7 days, model-specific)	0.0944	0.891	-0.242	1.29	1.16
in vitro model: cholesterol-high 0.2 mM, time point: terminal (~4-5 doublings, model-specific)	0.0908	1	-0.716	1.57	1.36
in vitro model: dormancy (butyrate + nitrate, low O2), time point: constant (~7 days, model-specific)	0.0988	0.938	0.038	-0.678	-1.51
in vitro model: dormancy (butyrate + nitrate, low O2), time point: terminal (~4-5 doublings, model-specific)	0.0571	0.993	-0.337	-0.503	-0.477
in vitro model: standard 7H9 glycerol, time point: constant = terminal	0.11	0.93	0.0153	-0.349	-0.0486
in vitro model: valerate, time point: constant (~7 days, model-specific)	0.0751	0.857	0.0268	0.706	–
in vitro model: valerate, time point: terminal (~4-5 doublings, model-specific)	0.0551	0.929	0.0406	0.736	0.763
